From US11447466B2, “Substituted indole compounds useful as inhibitors of TLR7/8/9” (BRISTOL-MYERS SQUIBB COMPANY, priority 2017, dated 2022) come the findings set out here.

By IC50 is commonly meant the concentration that inhibits the measured activity by half. A high value points to a need for much substance.

Holding throughout (assay type): cell-based
The target of one assay is T1, human TLR7 (Homo sapiens, UniProt Q9NYK1).
T1 construct: host or cells: HEK-Blue cells
T1 sequence (Q9NYK1 27-1049): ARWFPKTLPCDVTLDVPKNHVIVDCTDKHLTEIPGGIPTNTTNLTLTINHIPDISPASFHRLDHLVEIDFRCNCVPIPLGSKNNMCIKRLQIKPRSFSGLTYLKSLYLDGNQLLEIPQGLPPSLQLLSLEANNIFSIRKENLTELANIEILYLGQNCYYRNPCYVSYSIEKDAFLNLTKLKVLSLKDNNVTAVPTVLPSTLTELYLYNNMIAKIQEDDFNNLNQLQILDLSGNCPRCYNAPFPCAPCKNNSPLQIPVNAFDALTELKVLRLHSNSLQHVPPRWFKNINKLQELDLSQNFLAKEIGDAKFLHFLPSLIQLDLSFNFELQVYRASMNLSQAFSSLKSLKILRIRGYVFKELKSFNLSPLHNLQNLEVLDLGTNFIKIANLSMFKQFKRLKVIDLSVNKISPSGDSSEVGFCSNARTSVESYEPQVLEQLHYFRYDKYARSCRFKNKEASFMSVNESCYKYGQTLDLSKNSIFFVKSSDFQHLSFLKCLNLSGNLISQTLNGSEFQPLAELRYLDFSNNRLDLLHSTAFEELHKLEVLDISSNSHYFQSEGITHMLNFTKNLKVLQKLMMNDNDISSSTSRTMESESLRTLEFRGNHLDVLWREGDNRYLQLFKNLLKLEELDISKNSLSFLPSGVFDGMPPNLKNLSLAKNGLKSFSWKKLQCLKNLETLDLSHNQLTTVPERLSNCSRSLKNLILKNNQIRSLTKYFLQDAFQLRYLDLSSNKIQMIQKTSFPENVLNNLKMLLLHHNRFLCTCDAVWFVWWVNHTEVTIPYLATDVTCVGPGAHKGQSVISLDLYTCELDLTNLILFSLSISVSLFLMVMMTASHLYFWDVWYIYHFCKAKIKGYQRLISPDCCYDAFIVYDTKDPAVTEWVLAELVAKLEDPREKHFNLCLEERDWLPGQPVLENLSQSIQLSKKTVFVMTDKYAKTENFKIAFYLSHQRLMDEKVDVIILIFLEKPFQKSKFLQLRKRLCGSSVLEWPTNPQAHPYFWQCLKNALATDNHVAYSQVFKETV
Description: TLR7 inhibition reporter assay (HEK-Blue SEAP reporter, gardiquimod stimulation). Particulars: HEK-Blue cells overexpressing human TLR7, SEAP reporter, gardiquimod 7.5 μM, 22 hour incubation. As for the experimental part:
(§1) TLR7/8/9 Inhibition Reporter Assays
(§2) HEK-Blue™-cells (Invivogen) overexpressing human TLR7, TLR8 or TLR9 receptors were used for screening inhibitors of these receptors using an inducible SEAP (secreted embryonic alkaline phosphatase) reporter gene under the control of the IFN-β minimal promoter fused to five NF-κB and AP-1-binding sites. Briefly, cells are seeded into Greiner 384 well plates (15000 cells per well for TLR7, 20,000 for TLR8 and 25,000 for TLR9) and then treated with test compounds in DMSO to yield a final dose response concentration range of 0.05 nM-50 μM. After a 30 minute compound pre-treatment at room temperature, the cells are then stimulated with a TLR7 ligand (gardiquimod at a final concentration of 7.5 μM), TLR8 ligand (R848 at a final concentration of 15.9 μM) or TLR9 ligand (ODN2006 at a final concentration of 5 nM) to activate NF-κB and AP-1 which induce the production of SEAP. After a 22 hour incubation at 37° C., 5% CO2, SEAP levels are determined with the addition of HEK-Blue™ Detection reagent (Invivogen), a cell culture medium that allows for detection of SEAP, according to manufacturer's specifications. The percent inhibition is determined as the % reduction in the HEK-Blue signal present in wells treated with agonist plus DMSO alone compared to wells treated with a known inhibitor.
On the technique in general: Reporter assays use an easily measured gene product as a stand-in for the process of interest.

The target of a further assay is T2, human TLR9 (Homo sapiens, UniProt Q9NR96).
T2 construct: host or cells: HEK-Blue cells
T2 sequence (Q9NR96 26-1032): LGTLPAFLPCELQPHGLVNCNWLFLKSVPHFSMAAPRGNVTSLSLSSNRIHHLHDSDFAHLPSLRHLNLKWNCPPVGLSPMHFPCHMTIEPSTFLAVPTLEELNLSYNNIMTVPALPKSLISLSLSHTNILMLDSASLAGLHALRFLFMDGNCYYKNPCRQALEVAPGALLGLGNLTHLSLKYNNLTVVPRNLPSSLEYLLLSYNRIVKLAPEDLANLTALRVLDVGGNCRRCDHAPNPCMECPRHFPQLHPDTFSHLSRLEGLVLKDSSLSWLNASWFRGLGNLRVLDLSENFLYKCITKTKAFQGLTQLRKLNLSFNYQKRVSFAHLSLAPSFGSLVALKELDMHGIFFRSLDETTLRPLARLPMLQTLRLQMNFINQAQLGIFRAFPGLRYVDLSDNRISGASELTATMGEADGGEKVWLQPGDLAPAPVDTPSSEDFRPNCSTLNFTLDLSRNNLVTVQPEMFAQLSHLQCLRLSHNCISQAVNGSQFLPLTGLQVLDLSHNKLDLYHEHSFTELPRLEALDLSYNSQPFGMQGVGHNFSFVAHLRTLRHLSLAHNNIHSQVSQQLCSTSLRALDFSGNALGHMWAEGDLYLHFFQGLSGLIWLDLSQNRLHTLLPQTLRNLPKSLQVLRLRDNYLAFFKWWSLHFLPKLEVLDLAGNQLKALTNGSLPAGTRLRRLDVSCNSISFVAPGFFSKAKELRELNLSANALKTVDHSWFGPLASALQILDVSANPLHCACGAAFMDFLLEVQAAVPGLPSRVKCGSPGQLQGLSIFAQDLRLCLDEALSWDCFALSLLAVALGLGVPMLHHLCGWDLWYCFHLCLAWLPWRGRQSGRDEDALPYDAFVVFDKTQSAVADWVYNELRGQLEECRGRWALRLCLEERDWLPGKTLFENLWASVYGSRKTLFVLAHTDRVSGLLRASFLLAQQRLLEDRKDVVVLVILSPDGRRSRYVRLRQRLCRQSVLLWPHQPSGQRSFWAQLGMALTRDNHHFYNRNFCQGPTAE
Description: TLR9 inhibition reporter assay (HEK-Blue SEAP reporter, ODN2006 stimulation). Particulars: HEK-Blue cells overexpressing human TLR9, SEAP reporter, ODN2006 5 nM, 22 hour incubation. As for the experimental part: as §1, §2

The target in another assay is T3, human TLR8 (Homo sapiens, UniProt Q9NR97).
T3 construct: host or cells: HEK-Blue cells
T3 sequence (Q9NR97 27-1041): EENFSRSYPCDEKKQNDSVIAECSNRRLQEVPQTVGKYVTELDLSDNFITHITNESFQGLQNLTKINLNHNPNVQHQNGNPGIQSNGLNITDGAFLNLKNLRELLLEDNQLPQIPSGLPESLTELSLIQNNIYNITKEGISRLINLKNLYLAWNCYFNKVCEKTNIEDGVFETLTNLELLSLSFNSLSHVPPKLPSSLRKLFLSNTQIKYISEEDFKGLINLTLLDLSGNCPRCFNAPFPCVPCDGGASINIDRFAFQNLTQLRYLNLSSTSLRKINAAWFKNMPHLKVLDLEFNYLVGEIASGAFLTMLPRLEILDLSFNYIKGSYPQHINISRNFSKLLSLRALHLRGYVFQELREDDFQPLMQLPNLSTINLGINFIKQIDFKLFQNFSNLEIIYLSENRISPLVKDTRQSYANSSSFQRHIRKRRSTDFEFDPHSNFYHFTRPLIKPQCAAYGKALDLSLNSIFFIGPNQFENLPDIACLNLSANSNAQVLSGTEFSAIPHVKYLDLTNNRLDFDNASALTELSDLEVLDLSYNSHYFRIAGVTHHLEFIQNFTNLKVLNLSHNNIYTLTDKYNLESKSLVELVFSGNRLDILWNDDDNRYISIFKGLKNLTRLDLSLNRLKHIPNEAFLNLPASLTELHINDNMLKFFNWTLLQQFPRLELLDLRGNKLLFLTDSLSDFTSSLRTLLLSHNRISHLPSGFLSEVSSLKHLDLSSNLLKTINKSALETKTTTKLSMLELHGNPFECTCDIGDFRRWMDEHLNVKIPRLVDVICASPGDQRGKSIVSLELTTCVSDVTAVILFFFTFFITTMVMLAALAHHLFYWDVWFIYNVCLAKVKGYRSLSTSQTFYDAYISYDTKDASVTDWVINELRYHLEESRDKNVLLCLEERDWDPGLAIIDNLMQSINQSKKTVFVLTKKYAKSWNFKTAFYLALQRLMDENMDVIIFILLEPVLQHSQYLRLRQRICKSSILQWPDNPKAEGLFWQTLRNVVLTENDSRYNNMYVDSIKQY
Description: TLR8 inhibition reporter assay (HEK-Blue SEAP reporter, R848 stimulation). Particulars: HEK-Blue cells overexpressing human TLR8, SEAP reporter, R848 15.9 μM, 22 hour incubation. The procedure:
as §1, §2

With `CC(C)c1c(-c2cc(-c3cccc(C(N)=O)c3)c(=O)n(C)c2)[nH]c2ccc(C3CCNCC3)cc12` [Example 58, 3-(5-(3-isopropyl-5-(piperidin-4-yl)-1H-indol-2-yl)-1-methyl-2-oxo-1,2-dihydropyridin-3-yl)benzamide], the figures for the IC50 against human TLR7, at human TLR9 and at human TLR8 were 5.4 nM, 3480 nM and 222 nM, respectively.

`Cc1c(-c2[nH]c3ccc(C4CCN(CC(C)(C)O)CC4)cc3c2C(C)C)cc(C#N)c(=O)n1C` [Example 321, 5-(5-(1-(2-hydroxy-2-methylpropyl)piperidin-4-yl)-3-isopropyl-1H-indol-2-yl)-1,6-dimethyl-2-oxo-1,2-dihydropyridine-3-carbonitrile]: the values for the IC50 at human TLR7, at human TLR9 and against human TLR8 were 36.7 nM, 4370 nM and 1.6 nM, respectively.

Turning to `CC(C)c1c(-c2cc(N)c(=O)n(C)c2)[nH]c2ccc(C3CCNCC3)cc12` [Example 9, 3-amino-5-(3-isopropyl-5-(piperidin-4-yl)-1H-indol-2-yl)-1-methylpyridin-2(1H)-one], the values for the IC50 against human TLR7, at human TLR9 and against human TLR8 were 50.8 nM, 879 nM and 11.5 nM, respectively.

`Cc1cc(-c2[nH]c3ccc(C4CCN(C(=O)C[C@H]5CCCN5)CC4)cc3c2C(C)C)cn(C)c1=O` [Example 306, (R)-5-(3-isopropyl-5-(1-(2-(pyrrolidin-2-yl)acetyl)piperidin-4-yl)-1H-indol-2-yl)-1,3-dimethylpyridin-2(1H)-one]: the IC50 at human TLR7 was found to be 16.5 nM; against human TLR9, 547 nM; at human TLR8, 26.9 nM.

Consider `COCCn1cc(-c2[nH]c3ccc(C4CCNCC4)cc3c2C(C)C)cc(C)c1=O` [Example 39, 5-(3-isopropyl-5-(piperidin-4-yl)-1H-indol-2-yl)-1-(2-methoxyethyl)-3-methylpyridin-2(1H)-one], for which the IC50 turned out to be 7.9 nM on human TLR7, 3180 nM against human TLR9 and 7.9 nM at human TLR8.

As for `CC(C)c1c(-c2cc(Cl)c(=O)n(C)c2)[nH]c2ccc(C3CCNCC3)cc12` [Example 22, 3-chloro-5-(3-isopropyl-5-(piperidin-4-yl)-1H-indol-2-yl)-1-methylpyridin-2(1H)-one], the IC50 against human TLR7 is 1.1 nM; at human TLR9, 2550 nM; against human TLR8, 10.7 nM.

As to `Cc1c(-c2[nH]c3ccc(C4CCN(CC(=O)N(C)C)CC4)cc3c2C(C)C)cn(C)c(=O)c1C#N` [Example 147, 2-(4-(2-(5-cyano-1,4-dimethyl-6-oxo-1,6-dihydropyridin-3-yl)-3-isopropyl-1H-indol-5-yl)piperidin-1-yl)-N,N-dimethylacetamide], the IC50 against human TLR7 turned out to be 56.3 nM; against human TLR9, 5020 nM; at human TLR8, 4.8 nM.

As for `Cc1cc(-c2[nH]c3ccc(C4CCN(C5CCOC5)CC4)cc3c2C(C)C)cn(C)c1=O` (stereo not drawn) [Example 180, 5-(3-isopropyl-5-(1-(tetrahydrofuran-3-yl)piperidin-4-yl)-1H-indol-2-yl)-1,3-dimethylpyridin-2(1H)-one], the IC50 on human TLR7 came to 7 nM; against human TLR9, 5750 nM; against human TLR8, 8.2 nM.

On to `CCCN1CCC(c2ccc3[nH]c(-c4cc(-c5cncnc5)c(=O)n(C)c4)c(C(C)C)c3c2F)CC1` [Example 258, 5-(4-fluoro-3-isopropyl-5-(1-propylpiperidin-4-yl)-1H-indol-2-yl)-1-methyl-3-(pyrimidin-5-yl)pyridin-2(1H)-one], for which the figures for the IC50 at human TLR7, against human TLR9 and at human TLR8 were 4.5 nM, 832 nM and 1.1 nM, respectively.

Consider `Cc1nc(-c2[nH]c3ccc(C4CCNCC4)cc3c2C(C)C)cn(C)c1=O` [Example 12, 5-(3-isopropyl-5-(piperidin-4-yl)-1H-indol-2-yl)-1,3-dimethylpyrazin-2(1H)-one], for which the IC50 is 24.7 nM against human TLR7, 5230 nM against human TLR9 and 29 nM against human TLR8.

As to `Cc1c(-c2[nH]c3ccc(C4CCN(C5COC5)CC4)cc3c2C(C)C)cc(C#N)c(=O)n1C` [Example 219, 5-(3-isopropyl-5-(1-(oxetan-3-yl)piperidin-4-yl)-1H-indol-2-yl)-1,6-dimethyl-2-oxo-1,2-dihydropyridine-3-carbonitrile], the IC50 on human TLR7 amounted to 48 nM; at human TLR9 it was 22300 nM; at human TLR8, 9.1 nM.
